According to article PMC6576746, “Rational discovery of dual-indication multi-target PDE/Kinase inhibitor for precision anti-cancer therapy using structural systems pharmacology” (PLoS Computational Biology, 2019):

How the values were obtained:
Assay in all cases: cells
Parameters in all cases: species or system panel of human cancer cell lines; Eurofins OncoPanel proliferation; nuclei count by high-content fluorescence imaging, 10-point dose response
DOHH-2 = conditions: Homo sapiens, DOHH-2, 72 h, cell count, 3 days
Outline: (§1)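 Cells in RPMI 1640/10% FBS or special medium received compound the day after seeding, with a time-zero plate; 3-day incubation at 37°C, 5% CO2. Nuclei imaged by fluorescence microscopy; 10 half-log doses from 100 μM, 0.1% DMSO. EC50, IC50, GI50 and activity area (0–10) from curve fits.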

SNU-C2B = conditions: Homo sapiens, SNU-C2B, 72 h, cell count, 3 days
Outline: as §1

Mia PaCa-2 = conditions: Homo sapiens, MIA PaCa-2, 72 h, cell count, 3 days
Outline: as §1

GA-10 = conditions: Homo sapiens, GA-10, 72 h, cell count, 3 days
Outline: as §1

BPH1 = conditions: Homo sapiens, BPH-1, 72 h, cell count, 3 days
Outline: as §1

NAMALWA = conditions: 72 h, cell count, 3 days
Outline: as §1

C32TG = conditions: C32TG, 72 h, cell count, 3 days
Outline: as §1

Calu6 = conditions: Homo sapiens, Calu-6, 72 h, cell count, 3 days
Outline: as §1

SCC-9 = conditions: Homo sapiens, SCC-9, 72 h, cell count, 3 days
Outline: as §1

CaOV3 = conditions: Homo sapiens, Caov-3, 72 h, cell count, 3 days
Outline: as §1

K562 = conditions: Homo sapiens, K562, 72 h, cell count, 3 days
Outline: as §1

SNB-19 = conditions: Homo sapiens, SNB-19, 72 h, cell count, 3 days
Outline: as §1

Hs 578T = conditions: Homo sapiens, Hs-578T, 72 h, cell count, 3 days
Outline: as §1

LS123 = conditions: Homo sapiens, LS-123, 72 h, cell count, 3 days
Outline: as §1

[1] = 50% of maximum possible response

- IC50 (SNU-C2B; [1]): 55.2 µM
- GI50 (SNU-C2B; corrected for time zero): 31.1 µM
- EC50 (SNU-C2B; curve inflection point): 45.4 µM
- IC50 (Mia PaCa-2; [1]): 11 µM
- GI50 (Mia PaCa-2; corrected for time zero): 9.38 µM
- EC50 (Mia PaCa-2; curve inflection point): 9.92 µM
- IC50 (Calu6; [1]): > 100 µM
- GI50 (Calu6; corrected for time zero): 91.5 µM
- EC50 (Calu6; curve inflection point): > 100 µM
- IC50 (K562; [1]): 44.4 µM
- GI50 (K562; corrected for time zero): 38.5 µM
- EC50 (K562; curve inflection point): 44.4 µM
Structure (SMILES): C[C@@H]1CC(=O)NN=C1c1ccc(NN=C(C#N)C#N)cc1 [levosimendan]
- IC50 (DOHH-2; [1]): 15.8 µM
- GI50 (DOHH-2; corrected for time zero): 14.4 µM
- EC50 (DOHH-2; curve inflection point): 15.8 µM
- IC50 (GA-10; [1]): 10.2 µM
- GI50 (GA-10; corrected for time zero): 9.28 µM
- EC50 (GA-10; curve inflection point): 10.2 µM
- IC50 (BPH1; [1]): 8.33 µM
- GI50 (BPH1; corrected for time zero): 7.33 µM
- EC50 (BPH1; curve inflection point): 7.05 µM
- IC50 (NAMALWA; [1]): 12.5 µM
- GI50 (NAMALWA; corrected for time zero): 11.3 µM
- EC50 (NAMALWA; curve inflection point): 12.5 µM
- IC50 (C32TG; [1]): 36.9 µM
- GI50 (C32TG; corrected for time zero): 23.4 µM
- EC50 (C32TG; curve inflection point): 36.9 µM
- IC50 (SCC-9; [1]): 33.6 µM
- GI50 (SCC-9; corrected for time zero): 26.3 µM
- EC50 (SCC-9; curve inflection point): 33.6 µM
- IC50 (CaOV3; [1]): 37.4 µM
- GI50 (CaOV3; corrected for time zero): 21.4 µM
- EC50 (CaOV3; curve inflection point): 37.4 µM
- IC50 (SNB-19; [1]): > 100 µM
- GI50 (SNB-19; corrected for time zero): > 100 µM
- EC50 (SNB-19; curve inflection point): > 100 µM
- IC50 (Hs 578T; [1]): > 100 µM
- GI50 (Hs 578T; corrected for time zero): > 100 µM
- EC50 (Hs 578T; curve inflection point): 48 µM
- IC50 (LS123; [1]): 53.3 µM
- GI50 (LS123; corrected for time zero): 22 µM
- EC50 (LS123; curve inflection point): 43.8 µM
